Values after ≈ are worked out from the molar mass of the structure shown.
Tests used:
Assay type in all cases: physicochemical
[1] = Water solubility of the drug
[2] = In vitro dissolution test in 30 ml MFD solution (Reference Example 5)
Protocol: (§1) Phosphate buffered saline solution (PBS) was prepared comprising 20 mM sodium phosphate, […] potassium phosphate, 87 mM NaCl and 0.2 mM KCl, adjusted to pH 6.5. Four in vitro dissolution tests were performed in 35 mL of the PBS solution at 37°C to test the effectiveness of drug release from the dosage composition of the invention as measured against Controls A, B and C. Drug concentrations over time were determined by periodically withdrawing samples of each of the four solutions, centrifuging the samples for 1 minute at 13,000 rpm to pellet any undissolved drug, sampling the supernate, and analyzing the sample by High Performance Liquid Chromatography (HPLC) to thereby calculate drug concentrations.
(§2) A Model Fasted Duodenum (MFD) solution which mimics the chemical environment in the small intestine was prepared, comprising the PBS solution described in Example 1 mixed with 14.7 mM sodium taurocholic acid and 2.8 mM of 1-palmitoyl-2-oleyl-sn-glycero-3-phosphocholine. Four in vitro dissolution tests were performed in 500 mL of the so-prepared MFD solution to test the effectiveness of drug release from the dosage composition of the invention against Controls D, E and F. The sampling and analysis were carried out as in Example 1.
An MFD solution was prepared as in Example 2. Four in vitro dissolution tests were performed in 30 ml of the MFD solution to test the effectiveness of drug release from the dosage composition of the invention against Controls J, K and L. The sampling and analysis were carried out as in Example 1.

[3] = In vitro dissolution test in 500 mL Model Fasted Duodenum (MFD) solution (Example 2); conditions: 500 mL MFD solution
Protocol: as §1, §2

[4] = In vitro dissolution test in 35 mL PBS solution (Example 1); conditions: 35 mL PBS pH 6.5, 37°C
Protocol: as §1

[5] = In vitro dissolution test in 40 mL PBS solution (Reference Example 3); conditions: 37°C
Protocol: as §1
As a control (Control G), tablets were similarly prepared except rather than using the drug/CAP solid dispersion, a mixture of 1 part crystalline drug to 3 parts CAP was used. As a second control (Control H), 26 mg of crystalline drug alone was used. As a third control (Control I), 105.3 mg of the solid dispersion with no erodible matrix was used. In order to determine the drug release profile of the dosage form of the present invention as compared to the controls, in vitro dissolution tests in 40 mL of the PBS solution of Example 1 at 37°C were performed as in Example 1.

## CN[C@H]1CC[C@@H](c2ccc(Cl)c(Cl)c2)c2ccccc21.Cl (relative stereo) [(1S-cis)-4-(3,4-dichlorophenyl)-1,2,3,4-tetrahydro-N-methyl-1-napthalenamine hydrochloride]
[1]
  water solubility: 70 µg/mL

## CN[C@H]1CC[C@@H](c2ccc(Cl)c(Cl)c2)c2ccccc21.Cl (relative stereo) [Control K, (1S-cis)-4-(3,4-dichlorophenyl)-1,2,3,4-tetrahydro-N-methyl-1-napthalenamine hydrochloride]
[2]; time 0 min
  AUC: 0 µg·min/mL
  [Drug]: 0 µg/mL
[2]; time 10 min
  AUC: 1073 µg·min/mL
  [Drug]: 0 µg/mL
[2]; time 20 min
  AUC: 5459 µg·min/mL
  [Drug]: 358 µg/mL
[2]; time 40 min
  AUC: 16706 µg·min/mL
  [Drug]: 520 µg/mL
[2]; time 90 min
  AUC: 37083 µg·min/mL
  [Drug]: 605 µg/mL
[2]; time 120 min
  AUC: 40231 µg·min/mL
  [Drug]: 210 µg/mL
[2]; time 240 min
  AUC: 52796 µg·min/mL
  [Drug]: 130 µg/mL
[2]; time 360 min
  AUC: 70528 µg·min/mL
  [Drug]: 159 µg/mL
[2]; time 540 min
  AUC: 108647 µg·min/mL
  [Drug]: 136 µg/mL
[2]; time 1200 min
  [Drug]: 128 µg/mL

## CON(C)C(=O)C(O)[C@H](Cc1ccccc1)NC(=O)c1cc2cc(Cl)ccc2[nH]1 (stereo in doubt) [Control E, [R-(R*S*)]-5 chloro-N-[2-hydroxy-3-[(methoxymethylamino)-3-oxo-1(phenylmethyl)propyl]propyl]-1H-indole-2-carboxymide]
[3]; time 0 min
  AUC: 0 µg·min/mL
  [Drug]: 0.0 µg/mL
[3]; time 10 min
  AUC: 21 µg·min/mL
  [Drug]: 6.9 µg/mL
[3]; time 20 min
  AUC: 72 µg·min/mL
  [Drug]: 3.2 µg/mL
[3]; time 40 min
  AUC: 172 µg·min/mL
  [Drug]: 6.8 µg/mL
[3]; time 90 min
  AUC: 795 µg·min/mL
  [Drug]: 18.1 µg/mL
[3]; time 120 min
  AUC: 1281 µg·min/mL
  [Drug]: 14.3 µg/mL
[3]; time 180 min
  AUC: 2219 µg·min/mL
  [Drug]: 17.0 µg/mL
[3]; time 240 min
  AUC: 2992 µg·min/mL
  [Drug]: 8.8 µg/mL
[3]; time 360 min
  AUC: 4030 µg·min/mL
  [Drug]: 8.5 µg/mL
[3]; time 525 min
  AUC: 5756 µg·min/mL
  [Drug]: 10.7 µg/mL
[3]; time 720 min
  AUC: 7525 µg·min/mL
  [Drug]: 9.0 µg/mL
[3]; time 1200 min
  [Drug]: 8.0 µg/mL

## O=C(N[C@@H](Cc1ccccc1)[C@@H](O)C(=O)N1C[C@@H](O)[C@@H](O)C1)c1cc2cc(Cl)ccc2[nH]1 [Control B, 5-chloro-1H-indole-2-carboxylic acid [(1S) -benzyl-3-((3R,4S) -dihydroxypyrrolidin-1-yl-) - (2R) -hydroxy-3-oxypropyl]amide]
[4]; time 0 min
  AUC: 0 µg·min/mL
  [Drug]: 0.0 µg/mL
[4]; time 4 min
  AUC: 180 µg·min/mL
  [Drug]: 90.1 µg/mL
[4]; time 10 min
  AUC: 754 µg·min/mL
  [Drug]: 101.0 µg/mL
[4]; time 20 min
  AUC: 1753 µg·min/mL
  [Drug]: 98.8 µg/mL
[4]; time 40 min
  AUC: 4402 µg·min/mL
  [Drug]: 166.1 µg/mL
[4]; time 90 min
  AUC: 12252 µg·min/mL
  [Drug]: 147.9 µg/mL
[4]; time 120 min
  AUC: 16937 µg·min/mL
  [Drug]: 164.5 µg/mL
[4]; time 180 min
  AUC: 25991 µg·min/mL
  [Drug]: 137.3 µg/mL
[4]; time 240 min
  AUC: 34362 µg·min/mL
  [Drug]: 141.8 µg/mL
[4]; time 360 min
  AUC: 52528 µg·min/mL
  [Drug]: 161.0 µg/mL
[4]; time 525 min
  AUC: 80574 µg·min/mL
  [Drug]: 179.0 µg/mL
[4]; time 720 min
  AUC: 113346 µg·min/mL
  [Drug]: 157.2 µg/mL

## O=C(N[C@@H](Cc1ccccc1)[C@@H](O)C(=O)N1C[C@@H](O)[C@@H](O)C1)c1cc2cc(Cl)ccc2[nH]1 [Control H, 5-chloro-1H-indole-2-carboxylic acid [(1S) -benzyl-3-((3R,4S) -dihydroxypyrrolidin-1-yl-) - (2R) -hydroxy-3-oxypropyl]amide]
[5]; time 0 min
  AUC: 0 µg·min/mL
  [Drug]: 0.0 µg/mL
[5]; time 10 min
  AUC: 0 µg·min/mL
  [Drug]: 107.8 µg/mL
[5]; time 20 min
  AUC: 323 µg·min/mL
  [Drug]: 130.1 µg/mL
[5]; time 40 min
  AUC: 1513 µg·min/mL
  [Drug]: 109.1 µg/mL
[5]; time 90 min
  AUC: 3906 µg·min/mL
  [Drug]: 118.1 µg/mL
[5]; time 120 min
  AUC: 9587 µg·min/mL
  [Drug]: 121.8 µg/mL
[5]; time 180 min
  AUC: 13186 µg·min/mL
  [Drug]: 151.7 µg/mL
[5]; time 240 min
  AUC: 21392 µg·min/mL
  [Drug]: 170.4 µg/mL
[5]; time 360 min
  AUC: 31055 µg·min/mL
  [Drug]: 135.3 µg/mL
[5]; time 540 min
  AUC: 49395 µg·min/mL
  [Drug]: 134.8 µg/mL
[5]; time 720 min
  AUC: 73701 µg·min/mL
  [Drug]: 168.3 µg/mL

## CON(C)C(=O)[C@H](O)[C@H](Cc1ccccc1)NC(=O)c1cc2cc(Cl)ccc2[nH]1 [[R-(R*S*)]-5 chloro-N-[2-hydroxy-3-[(methoxymethylamino)-3-oxo-1(phenylmethyl)propyl]propyl]-1H-indole-2-carboxymide]
[1]
  solubility: 1 µg/mL (≈ 2.4 µM)
